In ChEMBL document CHEMBL4043269, “Synthesis and structure activity relationships of carbamimidoylcarbamate derivatives as novel vascular adhesion protein-1 inhibitors” (Bioorg Med Chem, 2017):

Columns and labels:
Rattus norvegicus [1] = assay: In vivo inhibition of VAP-1 in Wistar rat plasma at 0.3 mg/kg, po after 6 hrs in presence of [14C]-benzylamine by liquid scintillation counting analysis relative to control; format: functional
[2] = Aqueous solubility of compound in Japanese pharmacopoeia second fluid at pH 6.8 at 130 uM after 20 hrs by HPLC analysis; format: physicochemical
CYP1A2 = target: T1, CYP1A2 (Homo sapiens, UniProt P05177); assay: Inhibition of CYP1A2 in human liver microsomes using phenacetin as substrate assessed as residual activity at 5 uM after 20 mins by HPLC analysis; format: ADME; details: probe phenacetin, read-out: Activity
T1 sequence (P05177 whole entry): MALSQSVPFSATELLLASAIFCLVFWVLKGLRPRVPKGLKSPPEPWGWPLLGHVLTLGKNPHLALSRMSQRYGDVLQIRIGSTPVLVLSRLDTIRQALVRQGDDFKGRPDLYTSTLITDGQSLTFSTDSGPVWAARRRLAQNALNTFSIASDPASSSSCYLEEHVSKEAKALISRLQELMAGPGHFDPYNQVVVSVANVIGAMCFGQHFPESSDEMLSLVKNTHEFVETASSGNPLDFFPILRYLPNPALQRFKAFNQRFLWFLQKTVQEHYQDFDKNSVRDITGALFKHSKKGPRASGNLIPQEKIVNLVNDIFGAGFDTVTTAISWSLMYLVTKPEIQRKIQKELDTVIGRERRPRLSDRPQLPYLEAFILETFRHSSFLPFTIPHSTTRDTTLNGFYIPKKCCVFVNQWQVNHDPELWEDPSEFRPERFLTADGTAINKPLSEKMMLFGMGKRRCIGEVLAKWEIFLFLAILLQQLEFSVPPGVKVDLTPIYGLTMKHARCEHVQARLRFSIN

CYP2C8 = target: T2, CYP2C8 (Homo sapiens, UniProt P10632); assay: Inhibition of CYP2C8 in human liver microsomes using amodiaquine as substrate assessed as residual activity at 5 uM after 20 mins by HPLC analysis; format: ADME; details: probe amodiaquine, read-out: Activity
T2 sequence (P10632 whole entry): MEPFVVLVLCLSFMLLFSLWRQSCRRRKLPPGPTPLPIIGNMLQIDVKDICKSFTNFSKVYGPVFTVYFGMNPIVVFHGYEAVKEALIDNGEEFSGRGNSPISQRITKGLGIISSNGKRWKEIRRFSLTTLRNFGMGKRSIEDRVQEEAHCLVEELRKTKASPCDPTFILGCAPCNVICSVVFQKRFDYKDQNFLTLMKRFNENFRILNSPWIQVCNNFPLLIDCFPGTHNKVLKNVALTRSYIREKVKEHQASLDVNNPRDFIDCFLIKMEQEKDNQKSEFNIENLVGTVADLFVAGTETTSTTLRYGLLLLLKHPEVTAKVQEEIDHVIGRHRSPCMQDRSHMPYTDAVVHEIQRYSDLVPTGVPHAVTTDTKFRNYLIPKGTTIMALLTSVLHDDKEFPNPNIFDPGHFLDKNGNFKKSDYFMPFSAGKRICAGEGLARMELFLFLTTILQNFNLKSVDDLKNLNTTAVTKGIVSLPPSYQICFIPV

CYP2C19 = CYP2C19 (Homo sapiens, UniProt P33261); assay: Inhibition of CYP2C19 in human liver microsomes using S-mephenytoin as substrate assessed as residual activity at 5 uM after 20 mins by HPLC analysis; format: ADME; details: probe S-mephenytoin, read-out: Activity
CYP2D6 = CYP2D6 (Homo sapiens, UniProt P10635); assay: Inhibition of CYP2D6 in human liver microsomes using dextromethorphan as substrate assessed as residual activity at 5 uM after 20 mins by HPLC analysis; format: ADME; details: probe dextromethorphan, read-out: Activity
CYP3A4 = CYP3A4 (Homo sapiens, UniProt P08684); assay: Inhibition of CYP3A4 in human liver microsomes using midazolam as substrate assessed as residual activity at 5 uM after 20 mins by HPLC analysis; format: ADME; details: probe midazolam, read-out: Activity
Rattus norvegicus [3] = assay: In vivo inhibition of VAP-1 in Wistar rat plasma at 0.3 mg/kg, po after 1 hr in presence of [14C]-benzylamine by liquid scintillation counting analysis relative to control; format: functional
[4] = AUC in Beagle dog at 0.2 mg/kg, iv by LC-MS/MS analysis; format: ADME, organism-based, Canis lupus familiaris; details: in vivo
[5] = Half life in Beagle dog at 0.2 mg/kg, iv by LC-MS/MS analysis; format: ADME, organism-based, Canis lupus familiaris; details: in vivo
[6] = AUC in Sprague-Dawley rat at 1 mg/kg, iv by LC-MS/MS analysis; format: ADME, organism-based; details: in vivo
[7] = Half life in Sprague-Dawley rat at 1 mg/kg, iv by LC-MS/MS analysis; format: ADME, organism-based; details: in vivo
[8] = Volume of distribution at steady state in Sprague-Dawley rat at 1 mg/kg, iv by LC-MS/MS analysis; format: ADME, organism-based; details: in vivo, read-out: Vdss
[9] = Total clearance in Sprague-Dawley rat at 1 mg/kg, iv by LC-MS/MS analysis; format: ADME, organism-based; details: in vivo
[10] = Volume of distribution at steady state in Beagle dog at 0.2 mg/kg, iv by LC-MS/MS analysis; format: ADME, organism-based, Canis lupus familiaris; details: in vivo, read-out: Vdss
[11] = Total clearance in Beagle dog at 0.2 mg/kg, iv by LC-MS/MS analysis; format: ADME, organism-based, Canis lupus familiaris; details: in vivo
[12] = AUC in cynomolgus monkey at 0.2 mg/kg, iv by LC-MS/MS analysis; format: ADME, organism-based, Macaca fascicularis; details: in vivo
[13] = Half life in cynomolgus monkey at 0.2 mg/kg, iv by LC-MS/MS analysis; format: ADME, organism-based, Macaca fascicularis; details: in vivo
[14] = Volume of distribution at steady state in cynomolgus monkey at 0.2 mg/kg, iv by LC-MS/MS analysis; format: ADME, organism-based, Macaca fascicularis; details: in vivo, read-out: Vdss
[15] = Total clearance in cynomolgus monkey at 0.2 mg/kg, iv by LC-MS/MS analysis; format: ADME, organism-based, Macaca fascicularis; details: in vivo
[16] = AUC in Sprague-Dawley rat at 1 mg/kg, po by LC-MS/MS analysis; format: ADME, organism-based; details: in vivo
[17] = AUC in Beagle dog at 0.2 mg/kg, po by LC-MS/MS analysis; format: ADME, organism-based, Canis lupus familiaris; details: in vivo
[18] = AUC in cynomolgus monkey at 0.2 mg/kg, po by LC-MS/MS analysis; format: ADME, organism-based, Macaca fascicularis; details: in vivo
[19] = Cmax in Sprague-Dawley rat at 1 mg/kg, po by LC-MS/MS analysis; format: ADME, organism-based; design: dose 1 mg/kg, route oral; details: in vivo
[20] = Cmax in Beagle dog at 0.2 mg/kg, po by LC-MS/MS analysis; format: ADME, organism-based, Canis lupus familiaris; design: dose 0.2 mg/kg, route oral; details: in vivo
[21] = Cmax in cynomolgus monkey at 0.2 mg/kg, po by LC-MS/MS analysis; format: ADME, organism-based, Macaca fascicularis; design: dose 0.2 mg/kg, route oral; details: in vivo
[22] = Tmax in Sprague-Dawley rat at 1 mg/kg, po by LC-MS/MS analysis; format: ADME, organism-based; details: in vivo
[23] = Tmax in Beagle dog at 0.2 mg/kg, po by LC-MS/MS analysis; format: ADME, organism-based, Canis lupus familiaris; details: in vivo
[24] = Tmax in cynomolgus monkey at 0.2 mg/kg, po by LC-MS/MS analysis; format: ADME, organism-based, Macaca fascicularis; details: in vivo
[25] = Oral bioavailability in Sprague-Dawley rat at 1 mg/kg by LC-MS/MS analysis; format: ADME, organism-based; details: in vivo
[26] = Oral bioavailability in Beagle dog at 0.2 mg/kg by LC-MS/MS analysis; format: ADME, organism-based, Canis lupus familiaris; details: in vivo
[27] = Oral bioavailability in cynomolgus monkey at 0.2 mg/kg by LC-MS/MS analysis; format: ADME, organism-based, Macaca fascicularis; details: in vivo

Chain of CYP2C19 (P33261 whole entry): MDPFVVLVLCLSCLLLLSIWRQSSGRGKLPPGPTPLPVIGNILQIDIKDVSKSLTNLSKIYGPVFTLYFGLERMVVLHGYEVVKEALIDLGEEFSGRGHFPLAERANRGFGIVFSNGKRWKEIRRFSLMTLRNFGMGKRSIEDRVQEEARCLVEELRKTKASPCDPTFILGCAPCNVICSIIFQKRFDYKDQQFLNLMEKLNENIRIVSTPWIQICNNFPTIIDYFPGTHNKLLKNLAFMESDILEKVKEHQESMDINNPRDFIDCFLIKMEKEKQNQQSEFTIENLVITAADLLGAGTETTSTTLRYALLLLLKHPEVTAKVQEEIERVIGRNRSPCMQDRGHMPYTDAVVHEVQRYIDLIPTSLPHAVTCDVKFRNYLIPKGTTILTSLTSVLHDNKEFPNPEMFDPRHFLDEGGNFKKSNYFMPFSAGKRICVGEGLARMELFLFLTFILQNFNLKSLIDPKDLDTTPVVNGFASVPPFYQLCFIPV
Chain of CYP3A4 (P08684 whole entry): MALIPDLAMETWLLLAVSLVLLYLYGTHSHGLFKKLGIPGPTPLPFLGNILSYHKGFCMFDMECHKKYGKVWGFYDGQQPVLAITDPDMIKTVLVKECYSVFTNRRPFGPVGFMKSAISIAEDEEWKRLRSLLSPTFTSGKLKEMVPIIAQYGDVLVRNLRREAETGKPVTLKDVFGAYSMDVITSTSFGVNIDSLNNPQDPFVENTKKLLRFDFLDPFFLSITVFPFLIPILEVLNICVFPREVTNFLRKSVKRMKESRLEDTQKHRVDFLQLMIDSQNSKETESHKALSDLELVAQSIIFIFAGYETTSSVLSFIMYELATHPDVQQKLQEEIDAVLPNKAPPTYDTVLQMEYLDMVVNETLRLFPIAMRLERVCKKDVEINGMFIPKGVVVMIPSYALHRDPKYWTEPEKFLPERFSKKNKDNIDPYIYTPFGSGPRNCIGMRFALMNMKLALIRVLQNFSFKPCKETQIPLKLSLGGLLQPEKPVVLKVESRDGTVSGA
Chain of CYP2D6 (P10635 whole entry): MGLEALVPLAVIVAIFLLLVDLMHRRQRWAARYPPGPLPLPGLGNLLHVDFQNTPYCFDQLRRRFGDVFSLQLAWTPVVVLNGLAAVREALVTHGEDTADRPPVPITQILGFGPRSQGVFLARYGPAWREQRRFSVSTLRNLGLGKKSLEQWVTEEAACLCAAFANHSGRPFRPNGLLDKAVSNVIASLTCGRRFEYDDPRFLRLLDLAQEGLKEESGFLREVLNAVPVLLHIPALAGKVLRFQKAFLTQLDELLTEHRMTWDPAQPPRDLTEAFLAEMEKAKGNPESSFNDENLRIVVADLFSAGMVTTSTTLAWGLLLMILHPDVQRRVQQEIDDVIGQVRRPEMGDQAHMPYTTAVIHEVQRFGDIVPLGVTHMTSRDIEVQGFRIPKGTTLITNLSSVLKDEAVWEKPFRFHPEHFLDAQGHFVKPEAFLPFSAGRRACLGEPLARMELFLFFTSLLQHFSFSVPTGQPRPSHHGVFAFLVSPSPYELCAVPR

solubility at 20 h, 130 µM [2]: ≥ 100 µM
activity at 20 min, 5 µM (CYP1A2): 99%
activity at 20 min, 5 µM (CYP2C8): 91%
activity at 20 min, 5 µM (CYP2C19): 99%
activity at 20 min, 5 µM (CYP2D6): 95%
activity at 20 min, 5 µM (CYP3A4): 85%
AUC [4]: 380 ng·h/mL
half-life [5]: 8.9 h
AUC [6]: 3200 ng·h/mL
half-life [7]: 3.3 h
Vd [8]: 1.06 L/kg
clearance [9]: 5.2 mL/min/kg
Vd [10]: 4.43 L/kg
clearance [11]: 8.9 mL/min/kg
AUC [12]: 5350 ng·h/mL
half-life [13]: 64 h
Vd [14]: 1.39 L/kg
clearance [15]: 0.7 mL/min/kg
AUC [16]: 2320 ng·h/mL
AUC [17]: 297 ng·h/mL
AUC [18]: 4510 ng·h/mL
Cmax [19]: 401 ng/mL
Cmax [20]: 29.9 ng/mL
Cmax [21]: 201 ng/mL
Tmax [22]: 0.8 h
Tmax [23]: 0.8 h
Tmax [24]: 2.7 h
bioavailability [25]: 73%
bioavailability [26]: 78%
bioavailability [27]: 85%
SMILES: Cc1ccc(OC2CN(c3cccc(COC(=O)NC(=N)N)c3F)C2)cn1.O=C(O)C(O)C(O)C(=O)O
inhibition in vivo at 0.3 mg/kg (Rattus norvegicus [1]): 74%
inhibition in vivo at 0.3 mg/kg (Rattus norvegicus [3]): 92%
